For five compounds, MIC and MBC results are on record in ChEMBL document CHEMBL1671766, “In vitro activities of several antimicrobial agents against recently isolated and genotyped Chlamydia trachomatis urogenital serovars D through K” (2010).

Holding throughout (assay type): functional, LLC-MK2
The subject of test [1] is Chlamydia trachomatis. Briefly: Antimicrobial activity against Chlamydia trachomatis Bour serovar E infected in […] monolayers assessed as reduction in number of microbial inclusions after 48 hrs.
Test [2] deals with Chlamydia trachomatis. Briefly: Bactericidal activity against Chlamydia trachomatis serovar J infected in […] monolayers assessed as reduction in number of microbial inclusions after 48 hrs.
Test [3] has as its system Chlamydia trachomatis. Briefly: Antimicrobial activity against Chlamydia trachomatis 580 serovar H infected in […] monolayers assessed as reduction in number of microbial inclusions after 48 hrs.
Test [4] relates to Chlamydia trachomatis. Briefly: Bactericidal activity against Chlamydia trachomatis serovar E infected in […] monolayers assessed as reduction in number of microbial inclusions after 48 hrs.
Test [5] concerns Chlamydia trachomatis. Briefly: Antimicrobial activity against Chlamydia trachomatis Ic Cal-8 serovar D infected in […] monolayers assessed as reduction in number of microbial inclusions after 48 hrs.
Test [6] deals with Chlamydia trachomatis. Briefly: Antimicrobial activity against Chlamydia trachomatis serovar I infected in […] monolayers assessed as reduction in number of microbial inclusions after 48 hrs.
For test [7], the system named is Chlamydia trachomatis. Briefly: Antimicrobial activity against Chlamydia trachomatis serovar J infected in […] monolayers assessed as reduction in number of microbial inclusions after 48 hrs.
For test [8], the system named is Chlamydia trachomatis. In words: Antimicrobial activity against Chlamydia trachomatis serovar E infected in […] monolayers assessed as reduction in number of microbial inclusions after 48 hrs.
In test [9] the test system is Chlamydia trachomatis. In words: Antimicrobial activity against Chlamydia trachomatis serovar F infected in […] monolayers assessed as reduction in number of microbial inclusions after 48 hrs.
Test [10] relates to Chlamydia trachomatis. Briefly: Antimicrobial activity against Chlamydia trachomatis serovar D infected in […] monolayers assessed as reduction in number of microbial inclusions after 48 hrs.
Test [11] deals with Chlamydia trachomatis. Briefly: Bactericidal activity against Chlamydia trachomatis serovar F infected in […] monolayers assessed as reduction in number of microbial inclusions after 48 hrs.
The test system of test [12] is Chlamydia trachomatis. Briefly: Antimicrobial activity against Chlamydia trachomatis serovar G infected in […] monolayers assessed as reduction in number of microbial inclusions after 48 hrs.
Test [13] has as its system Chlamydia trachomatis. In words: Bactericidal activity against Chlamydia trachomatis serovar I infected in […] monolayers assessed as reduction in number of microbial inclusions after 48 hrs.
The test system of test [14] is Chlamydia trachomatis. Briefly: Antimicrobial activity against Chlamydia trachomatis serovar K infected in […] monolayers assessed as reduction in number of microbial inclusions after 48 hrs.
Test [15] concerns Chlamydia trachomatis. Briefly: Bactericidal activity against Chlamydia trachomatis serovar D infected in […] monolayers assessed as reduction in number of microbial inclusions after 48 hrs.
The subject of test [16] is Chlamydia trachomatis. Briefly: Antimicrobial activity against Chlamydia trachomatis serovar H infected in […] monolayers assessed as reduction in number of microbial inclusions after 48 hrs.
In test [17] the test system is Chlamydia trachomatis. Briefly: Bactericidal activity against Chlamydia trachomatis serovar G infected in […] monolayers assessed as reduction in number of microbial inclusions after 48 hrs.
In test [18] the test system is Chlamydia trachomatis. In words: Bactericidal activity against Chlamydia trachomatis serovar H infected in […] monolayers assessed as reduction in number of microbial inclusions after 48 hrs.
Test [19] concerns Chlamydia trachomatis. Briefly: Bactericidal activity against Chlamydia trachomatis serovar K infected in […] monolayers assessed as reduction in number of microbial inclusions after 48 hrs.
The test system of test [20] is Chlamydia trachomatis. Briefly: Antimicrobial activity against Chlamydia trachomatis UW-36 serovar J infected in […] monolayers assessed as reduction in number of microbial inclusions after 48 hrs. To be noted: J/UW-36, 48 h.

Molecules are shown by their SMILES.

As for `CC[C@H]1OC(=O)[C@H](C)[C@@H](O[C@H]2C[C@@](C)(OC)[C@@H](O)[C@H](C)O2)[C@H](C)[C@@H](O[C@@H]2O[C@H](C)C[C@H](N(C)C)[C@H]2O)[C@](C)(O)C[C@@H](C)C(=O)[C@H](C)[C@@H](O)[C@]1(C)O` [ERYTHROMYCIN], the MIC came out at 0.5 µg/mL in the test on Chlamydia trachomatis [1]; 1 µg/mL in the test with Chlamydia trachomatis [3]; 0.5 µg/mL in the test on Chlamydia trachomatis [5]; 0.5 µg/mL in the test on Chlamydia trachomatis [6]; 1 µg/mL with Chlamydia trachomatis [7]; 0.5 µg/mL in the test on Chlamydia trachomatis [8]. In addition, the MIC in the test with Chlamydia trachomatis [9], with Chlamydia trachomatis [10], with Chlamydia trachomatis [12], with Chlamydia trachomatis [14], in the test with Chlamydia trachomatis [16] and with Chlamydia trachomatis [20] was 0.5 µg/mL each time. Also, the MBC worked out at 2 µg/mL with Chlamydia trachomatis [2]; 1 µg/mL with Chlamydia trachomatis [4]; 1 µg/mL in the test with Chlamydia trachomatis [5]; 1 µg/mL in the test on Chlamydia trachomatis [11]; 1 µg/mL in the test on Chlamydia trachomatis [13]; 1 µg/mL in the test with Chlamydia trachomatis [15]. Moreover, the MBC in the test on Chlamydia trachomatis [17], in the test with Chlamydia trachomatis [18] and in the test with Chlamydia trachomatis [19] was 1 µg/mL each time.
Turning to `C[C@H]1c2cccc(O)c2C(=O)C2=C(O)[C@]3(O)C(=O)C(C(N)=O)=C(O)[C@@H](N(C)C)[C@@H]3[C@@H](O)[C@@H]21.O` [DOXYCYCLINE], the MIC with Chlamydia trachomatis [1] came to 0.03 µg/mL; in the test on Chlamydia trachomatis [3] it was 0.06 µg/mL; in the test on Chlamydia trachomatis [5], 0.03 µg/mL; with Chlamydia trachomatis [6], 0.06 µg/mL; in the test on Chlamydia trachomatis [7], 0.06 µg/mL; with Chlamydia trachomatis [8] it was 0.03 µg/mL. Moreover, the MIC in the test on Chlamydia trachomatis [9] was 0.03 µg/mL; in the test on Chlamydia trachomatis [10], 0.03 µg/mL; in the test with Chlamydia trachomatis [12], 0.03 µg/mL; in the test on Chlamydia trachomatis [14], 0.03 µg/mL; in the test on Chlamydia trachomatis [16], 0.03 µg/mL; in the test on Chlamydia trachomatis [20], 0.5 µg/mL. The MBC in the test on Chlamydia trachomatis [2], in the test with Chlamydia trachomatis [4], in the test with Chlamydia trachomatis [5], with Chlamydia trachomatis [11], in the test on Chlamydia trachomatis [13] and in the test on Chlamydia trachomatis [15] was 0.06 µg/mL throughout. The MBC with Chlamydia trachomatis [17], with Chlamydia trachomatis [18] and in the test with Chlamydia trachomatis [19] was 0.06 µg/mL in each case.
As for `CC[C@H]1OC(=O)[C@H](C)[C@@H](O[C@H]2C[C@@](C)(OC)[C@@H](O)[C@H](C)O2)[C@H](C)[C@@H](O[C@@H]2O[C@H](C)C[C@H](N(C)C)[C@H]2O)[C@](C)(O)C[C@@H](C)CN(C)[C@H](C)[C@@H](O)[C@]1(C)O` [AZITHROMYCIN], the MIC with Chlamydia trachomatis [1] is 0.25 µg/mL; with Chlamydia trachomatis [3], 0.25 µg/mL; in the test with Chlamydia trachomatis [5] it was 0.25 µg/mL; in the test on Chlamydia trachomatis [6], 0.5 µg/mL; in the test with Chlamydia trachomatis [7], 0.25 µg/mL; with Chlamydia trachomatis [8] it was 0.25 µg/mL. Besides, the MIC was 0.5 µg/mL with Chlamydia trachomatis [9]; 0.25 µg/mL in the test on Chlamydia trachomatis [10]; 0.5 µg/mL with Chlamydia trachomatis [12]; 0.5 µg/mL in the test on Chlamydia trachomatis [14]; 0.25 µg/mL with Chlamydia trachomatis [16]; 0.5 µg/mL with Chlamydia trachomatis [20]. Also, the MBC turned out to be 0.5 µg/mL with Chlamydia trachomatis [2]; 1 µg/mL in the test with Chlamydia trachomatis [4]; 1 µg/mL with Chlamydia trachomatis [5]; 0.5 µg/mL with Chlamydia trachomatis [11]; 1 µg/mL in the test on Chlamydia trachomatis [13]; 0.5 µg/mL in the test with Chlamydia trachomatis [15]. Also, the MBC with Chlamydia trachomatis [17] was 1 µg/mL; in the test with Chlamydia trachomatis [18], 1 µg/mL; in the test with Chlamydia trachomatis [19], 0.5 µg/mL.
On to `C[C@H]1COc2c(N3CCN(C)CC3)c(F)cc3c(=O)c(C(=O)O)cn1c23.C[C@H]1COc2c(N3CCN(C)CC3)c(F)cc3c(=O)c(C(=O)O)cn1c23.O` [LEVOFLOXACIN], for which the MBC in the test with Chlamydia trachomatis [1], in the test with Chlamydia trachomatis [2], with Chlamydia trachomatis [3], in the test with Chlamydia trachomatis [4], in the test with Chlamydia trachomatis [5] and with Chlamydia trachomatis [11] was 0.5 µg/mL each time. Besides, the MBC in the test on Chlamydia trachomatis [13] was 0.5 µg/mL; in the test on Chlamydia trachomatis [15], 0.5 µg/mL; in the test on Chlamydia trachomatis [17], 0.25 µg/mL; with Chlamydia trachomatis [18], 0.5 µg/mL; in the test with Chlamydia trachomatis [19] it was 0.5 µg/mL; in the test with Chlamydia trachomatis [20], 0.5 µg/mL. The MIC with Chlamydia trachomatis [1], in the test on Chlamydia trachomatis [3], in the test with Chlamydia trachomatis [5], with Chlamydia trachomatis [6], in the test with Chlamydia trachomatis [7] and with Chlamydia trachomatis [8] was 0.5 µg/mL throughout. The MIC in the test with Chlamydia trachomatis [9] came out at 0.5 µg/mL; in the test on Chlamydia trachomatis [10] it was 0.5 µg/mL; in the test with Chlamydia trachomatis [12], 0.25 µg/mL; in the test with Chlamydia trachomatis [14], 0.5 µg/mL; with Chlamydia trachomatis [16] it was 0.5 µg/mL; in the test on Chlamydia trachomatis [20] it was 0.5 µg/mL.
Turning to `CC[C@H]1OC(=O)[C@H](C)[C@@H](O[C@H]2C[C@@](C)(OC)[C@@H](O)[C@H](C)O2)[C@H](C)[C@@H](O[C@@H]2O[C@H](C)C[C@H](N(C)C)[C@H]2O)[C@](C)(OC)C[C@@H](C)C(=O)[C@H](C)[C@@H](O)[C@]1(C)O` [CLARITHROMYCIN], the MIC with Chlamydia trachomatis [1] is 0.03 µg/mL; with Chlamydia trachomatis [3], 0.06 µg/mL; in the test on Chlamydia trachomatis [5] it was 0.03 µg/mL; in the test with Chlamydia trachomatis [6], 0.015 µg/mL; with Chlamydia trachomatis [7] it was 0.03 µg/mL; with Chlamydia trachomatis [8], 0.015 µg/mL. The MIC in the test with Chlamydia trachomatis [9] amounted to 0.015 µg/mL; in the test on Chlamydia trachomatis [10], 0.03 µg/mL; with Chlamydia trachomatis [12], 0.03 µg/mL; in the test on Chlamydia trachomatis [14] it was 0.015 µg/mL; with Chlamydia trachomatis [16], 0.03 µg/mL; in the test with Chlamydia trachomatis [20], 0.06 µg/mL. The MBC was 0.06 µg/mL in the test with Chlamydia trachomatis [2]; 0.03 µg/mL with Chlamydia trachomatis [4]; 0.06 µg/mL in the test on Chlamydia trachomatis [5]; 0.03 µg/mL with Chlamydia trachomatis [11]; 0.03 µg/mL with Chlamydia trachomatis [13]; 0.03 µg/mL with Chlamydia trachomatis [15]. Also, the MBC in the test with Chlamydia trachomatis [17] was determined as 0.06 µg/mL; in the test with Chlamydia trachomatis [18], 0.06 µg/mL; in the test on Chlamydia trachomatis [19] it was 0.03 µg/mL.

The MIC is the lowest concentration found to suppress growth. Usually MBC stands for the smallest concentration meeting the test's criterion for killing.
